Consider 14 compounds from patent US4368199A, “Novel derivatives of 3,4,5-trimethoxy cinnamoyl piperazine, their salts, the process for preparing the same and their application in therapeutics” (Delalande S.A., priority 1980, dated 1983).

Counter-ions that a name gives are not always drawn. Like-named read-outs stand apart in the source and are kept apart here. Where only a bound is given, the exact number is not on record here.

One data set deals with dogs. Kind of data set: Haemodynamic tests on dogs anaesthetized with sodic pentobarbital (arterial pressure, cardiac frequency, coronary flow, cardiac contractile force). Conditions: dog; for change in vivo at 2.5 mg/kg / change in vivo at 0.625 mg/kg: Canis lupus familiaris, iv. It is filed as in vivo. Here is the method:
Tests were carried out on dogs anaesthetized with sodic pentobarbital (30 mg/kg/i.v.) and the compounds of formula (I) were administered intravenously. The activity on the cardiac contractile force was measured with a BRODIE and WALTON stress gauge fixed to the left ventricle.
The arterial pressure was measured at the femoral artery with a SANBORN pressure sensor.
The cardiac frequency was automatically counted by means of a cardiotachymeter from the pulse pressure wave.
The coronary flow was measured by means of an electromagnetic probe of the STATHAM or BIOTRONEX type at the coronary artery.

A short description of data set [1]: Acute toxicity in the mouse (MILLER and TAINTER method). To be noted: in vivo; for LD50: read-out: LD 50 (mouse). Here is the method: The acute toxicity was assessed in accordance with the MILLER and TAINTER method (Proc. Sci. Exp. Biol. Med. 1944, 57, 261)
Setting [2] is: 2.5 mg/kg/i.v., read-out: Increase of the cardiac contractile force.
The mark [3] stands for this setting: 2.5 mg/kg/i.v., read-out: Increase of the coronary flow.
The mark [4] stands for this setting: 2.5 mg/kg/i.v., read-out: Variation of the average arterial pressure.
The mark [5] stands for this setting: 2.5 mg/kg/i.v., read-out: Variation of the cardiac frequency.
The mark [6] stands for this setting: 0.625 mg/kg/i.v., read-out: Increase of the cardiac contractile force.
The mark [7] stands for this setting: 0.625 mg/kg/i.v., read-out: Increase of the coronary flow.
Setting [8] is: 0.625 mg/kg/i.v., read-out: Variation of the average arterial pressure.
Where [9] appears, read: 0.625 mg/kg/i.v., read-out: Variation of the cardiac frequency.
Where [10] appears, read: po, at 1000 mg/kg, read-out: LD 50 column: percentage in parentheses (p.o.).

Turning to `COc1cc(C=CC(=O)N2CCN(C3CCc4cc(O)c(O)cc4C3)CC2)cc(OC)c1OC` (stereo not shown) [Compound 108, 2-[4-(3,4,5-trimethoxycinnamoyl) 1-piperazinyl] 1,2,3,4-tetrahydro 6,7-dihydroxy naphthyl hydrate], the change in vivo at 2.5 mg/kg in the data set on dogs (setting [2]) is 44%; with dogs (setting [3]), 29%; in the data set with dogs (setting [4]), -20%; with dogs (setting [5]), 3%. In addition, in the data set on dogs (2.5 mg/kg/i.v.), the “Variation of the average arterial pressure: duration” value is recorded as above 30 mn. Moreover, the mortality in data set [1] (iv, at 200 mg/kg, read-out: LD 50 column: percentage in parentheses) worked out at 20%. In addition, in data set [1] (iv), the LD50 was 200 mg/kg.
In the case of `COc1ccc(CN2CCN(C(=O)C=Cc3cc(OC)c(OC)c(OC)c3)CC2)cc1OC` [Compound 2], the change in vivo at 0.625 mg/kg in the data set with dogs (setting [6]) was 71%; with dogs (setting [7]), 93%; in the data set with dogs (setting [8]), -12%; in the data set with dogs (setting [9]) it was 6%. Moreover, the change in vivo at 2.5 mg/kg was 76 to 398% with dogs (setting [3]), -25% in the data set with dogs (setting [4]) and 8% with dogs (setting [5]). The “Increase of the coronary flow: duration” value in the data set on dogs (0.625 mg/kg/i.v.) was below 20 mn; in the data set on dogs (2.5 mg/kg/i.v.), above 30 mn. Moreover, the “Variation of the cardiac frequency: duration” value in the data set with dogs (0.625 mg/kg/i.v.) is listed as below 5 mn. For the same compound, the “Increase of the cardiac contractile force” value in the data set with dogs (2.5 mg/kg/i.v.) is on record as “+58 to”. Besides, in the data set on dogs (2.5 mg/kg/i.v.), the “Increase of the cardiac contractile force: duration” value is above 308 mn. Moreover, the LD50 in data set [1] (iv) was 105 mg/kg.
`COc1cc(C=CC(=O)N2CCN(CCc3cccc(O)c3)CC2)cc(OC)c1OC` [Compound 3]: the change in vivo at 0.625 mg/kg with dogs (setting [6]) was 47%; in the data set with dogs (setting [7]), 26%; in the data set on dogs (setting [8]), -9%; in the data set with dogs (setting [9]), 0%. The change in vivo at 2.5 mg/kg was 62% in the data set with dogs (setting [2]), 62% in the data set on dogs (setting [3]), -36% in the data set on dogs (setting [4]) and 7% in the data set on dogs (setting [5]). Besides, the “Increase of the cardiac contractile force: duration” value in the data set on dogs (0.625 mg/kg/i.v.) is recorded as 30 mn. Besides, the “Increase of the coronary flow: duration” value with dogs (0.625 mg/kg/i.v.) amounted to 5 mn. For the same compound, in the data set on dogs (2.5 mg/kg/i.v.), the “Variation of the average arterial pressure: duration” value is recorded as above 30 mn. Besides, the LD50 in data set [1] (iv) is above 200 mg/kg.
On to `CNC(=O)Nc1ccc(CCN2CCN(C(=O)C=Cc3cc(OC)c(OC)c(OC)c3)CC2)cc1` [Compound 54], for which the change in vivo at 2.5 mg/kg is 48% in the data set on dogs (setting [2]), 181% in the data set on dogs (setting [3]), -9% in the data set on dogs (setting [4]) and 4% in the data set with dogs (setting [5]). In data set [1] (iv), the LD50 was above 200 mg/kg.
With `COc1cc(C=CC(=O)N2CCN(CC(=O)c3ccc4ccccc4c3)CC2)cc(OC)c1OC` [Compound 62], the change in vivo at 2.5 mg/kg in the data set with dogs (setting [2]) is 43%. Also, the change in vivo at 2.5 mg/kg in the data set on dogs (setting [4]) is -14%. The change in vivo at 2.5 mg/kg in the data set with dogs (setting [5]) came to 4%. In the data set with dogs (2.5 mg/kg/i.v.), the “Increase of the cardiac contractile force: duration” value is above 30 mn, the “Variation of the average arterial pressure: duration” value is reported as 10 mn and the “Variation of the cardiac frequency: duration” value was 5 mn. For the same compound, the LD50 in data set [1] (iv) was 45 mg/kg.
For the compound `COc1ccc(OC)c(C(O)CN2CCN(C(=O)C=Cc3cc(OC)c(OC)c(OC)c3)CC2)c1` (stereo not shown) [Compound 90], the change in vivo at 2.5 mg/kg is 42% in the data set with dogs (setting [2]), 15% in the data set with dogs (setting [3]), -11% in the data set with dogs (setting [4]) and 0% in the data set with dogs (setting [5]). Also, the mortality in data set [1] (setting [10]) was found to be 80%.
As to `COc1cc(C=CC(=O)N2CCN(CCc3c[nH]c4ccccc34)CC2)cc(OC)c1OC` [Compound 105], the change in vivo at 2.5 mg/kg was 17% with dogs (setting [2]), 55% in the data set with dogs (setting [3]), -34% in the data set with dogs (setting [4]) and 0% in the data set on dogs (setting [5]). Besides, in the data set with dogs (2.5 mg/kg/i.v.), the “Variation of the average arterial pressure: duration” value is above 30 mn. Also, the LD50 in data set [1] (iv) was above 200 mg/kg.
As to `CNC(=O)Nc1ccc(C(O)CN2CCN(C(=O)C=Cc3cc(OC)c(OC)c(OC)c3)CC2)cc1` (stereo not shown) [Compound 95], the change in vivo at 2.5 mg/kg is 21% with dogs (setting [2]), 27% in the data set with dogs (setting [3]), -20% in the data set with dogs (setting [4]) and 8% in the data set with dogs (setting [5]). Moreover, the “Increase of the cardiac contractile force: duration” value in the data set on dogs (2.5 mg/kg/i.v.) came to 10 mn. For the same compound, the LD50 in data set [1] (iv) was above 200 mg/kg.
Take `COc1cc(C=CC(=O)N2CCN(Cc3ccc(NC(C)=O)cc3)CC2)cc(OC)c1OC` [Compound 41]: the change in vivo at 2.5 mg/kg with dogs (setting [2]) is 35%; in the data set on dogs (setting [4]), -36%; in the data set with dogs (setting [5]), -16%. Moreover, in data set [1] (iv), the LD50 was above 200 mg/kg.
As to `COc1ccc(C(O)CN2CCN(C(=O)C=Cc3cc(OC)c(OC)c(OC)c3)CC2)c(OC)c1` (stereo not shown) [Compound 89], the change in vivo at 2.5 mg/kg with dogs (setting [2]) was 51%; in the data set on dogs (setting [4]), -38%; with dogs (setting [5]), -10%. Also, the “Variation of the average arterial pressure: duration” value in the data set with dogs (2.5 mg/kg/i.v.) is above 30 mn. For the same compound, the LD50 in data set [1] (iv) was above 100 mg/kg.
Turning to `COc1ccc(CC(O)CN2CCN(C(=O)C=Cc3cc(OC)c(OC)c(OC)c3)CC2)cc1OC` (stereo not shown) [Compound 102, 3-[4-(3,4,5-trimethoxycinnamoyl) 1-piperazinyl]1-(3,4-dimethoxy)phenyl 2-propanol hydrochloride hydrate], the change in vivo at 2.5 mg/kg with dogs (setting [2]) is 13%; in the data set on dogs (setting [3]), 34%; in the data set on dogs (setting [4]) it was -26%; in the data set on dogs (setting [5]), -4%. Also, the “Increase of the cardiac contractile force: duration” value with dogs (2.5 mg/kg/i.v.) is listed as 10 mn. Besides, the “Variation of the average arterial pressure: duration” value in the data set with dogs (2.5 mg/kg/i.v.) is above 30 mn. For the same compound, in data set [1] (iv), the LD50 was above 200 mg/kg.
For the compound `COc1ccc(OC)c(C(=O)CN2CCN(C(=O)C=Cc3cc(OC)c(OC)c(OC)c3)CC2)c1` [Compound 70], the change in vivo at 2.5 mg/kg is 50% with dogs (setting [2]), 27% with dogs (setting [3]), -21% in the data set with dogs (setting [4]) and 5% with dogs (setting [5]). In addition, the LD50 in data set [1] (iv) came out at 168 mg/kg.
Consider `COc1cc(C=CC(=O)N2CCN(CC(=O)c3ccc(OC)c(OC)c3OC)CC2)cc(OC)c1OC` [Compound 7], for which the change in vivo at 0.625 mg/kg was 69% with dogs (setting [6]), 277% in the data set on dogs (setting [7]), -22% in the data set on dogs (setting [8]) and -2 to 15% with dogs (setting [9]). Besides, the change in vivo at 2.5 mg/kg was 51% with dogs (setting [2]), 416% in the data set on dogs (setting [3]), -35% in the data set with dogs (setting [4]) and -8 to 9% with dogs (setting [5]). Further, the “Increase of the coronary flow: duration” value in the data set with dogs (0.625 mg/kg/i.v.) is below 5 mn; in the data set with dogs (2.5 mg/kg/i.v.) it was below 20 mn. For the same compound, the “Increase of the cardiac contractile force: duration” value in the data set on dogs (2.5 mg/kg/i.v.) was below 10 mn. Also, in data set [1] (setting [10]), the mortality was 0%.
Take `COc1cc(C=CC(=O)N2CCN(CC(=O)c3ccc(OC)c4c3OCCO4)CC2)cc(OC)c1OC` [Compound 10]: the change in vivo at 0.625 mg/kg was 9% with dogs (setting [6]), 39% with dogs (setting [7]), -7% with dogs (setting [8]) and 2% in the data set on dogs (setting [9]). The change in vivo at 2.5 mg/kg in the data set with dogs (setting [2]) was 53%; in the data set with dogs (setting [3]) it was 46%; with dogs (setting [4]) it was -16%; with dogs (setting [5]), 12%. The entries for the “Increase of the cardiac contractile force: duration” value in the data set with dogs (0.625 mg/kg/i.v.) and with dogs (2.5 mg/kg/i.v.) were below 10 mn and 10 mn, respectively. In addition, the “Variation of the average arterial pressure: duration” value in the data set on dogs (0.625 mg/kg/i.v.) is given as below 5 mn; in the data set with dogs (2.5 mg/kg/i.v.), above 30 mn. Moreover, the “Variation of the cardiac frequency: duration” value in the data set with dogs (0.625 mg/kg/i.v.) is below 5 mn; in the data set on dogs (2.5 mg/kg/i.v.) it was above 30 mn. The LD50 in data set [1] (iv) stood at 180 mg/kg.
